In patent publication EP0081122B1, “Carrier tripeptides with antifungal activity” (Helopharm W. Petrik GmbH & Co.KG., priority 1982, dated 1985):

Assays:
[1] = dissertation Universität Tübingen 1975; cited from earlier work
[2] = test system: Carboxypeptidasen
[3] = test system: einigen Bakterien; experiment: Antibacterial activity of free amino acid antagonists; type: cell-based; details: lost when built into the tripeptides
[4] = test system: Candida albicans; experiment: Growth inhibition / minimal inhibitory concentration in yeast nitrogen base medium; type: cell-based
Experimental: Die weiteren Untersuchungen dieser fünf Tripeptide gegenüber Cadida albicans und Candida pseudotropicalis in »yeast nitrogen base« Medium mit einer Zellzahl von 10^4/ml zu Testbeginn führten zu dem Ergebnis, daß diese Tripeptide keinerlei Wachstumshemmung zeigen. Die Tripeptide werden dabei bis zu einer Konzentration von 10 mg/ml Testmedium beurteilt. Bei den Tripeptiden L-Arg-D-Val-L-Phe und L-Arg-D-Ala-L-Phe werden im Gegenteil sogar Wachstumsförderung von Candida albicans festgestellt.
In der beigefügten Tabelle I sind die kleinsten inhibierenden Konzentrationen der beiden beispielsweisen erfindungsgemäßen Tripeptide 1 und 2 denjenigen der freien Antimetaboliten gegenübergestellt anhand des Beispiels candida albicans. Die Untersuchungen wurden in einem yeast nitrogen base Medium mit einem Glukosegehalt von 2% und einem pH-Wert von 7,2 durchgeführt. Die Zellzahl zu Versuchsbeginn beläuft sich auf 10^4/ml. Die Tests werden in Mikrotiterschalen durchgeführt und es wird 24 Stunden bei 30° C inkubiert.

durch Carboxypeptidasen spaltbar [2]	Molecule	Wirksamkeit gegenüber einigen Bakterien [3]	further results
–	L-Arginyl-D-allothreonyl-L-phenylalanin	–	antifungische Wirksamkeit [1]: antifungische Wirksamkeit
schwerer spaltbar	N=C(N)NCCC[C@H](N)C(=O)NC(Cc1ccc(F)cc1)C(=O)N[C@@H](Cc1ccccc1)C(N)=O (mixture of isomers) [Verbindung 4, L-Arginyl-DL-(p-fluorphenylalanyl)-L-phenylalaninamid]	–	–
–	NC(Cc1cccs1)C(=O)O (racemic) [β-2-DL-Thienylalanin]	Wirksamkeit zeigen	–
schwerer spaltbar	CC(=O)N[C@@H](CCCNC(=N)N)C(=O)NC(Cc1ccc(F)cc1)C(=O)N[C@@H](Cc1ccccc1)C(=O)O (mixture of isomers) [Verbindung 3, N 1-Acetyl-L-arginyl-DL-(p-fluorphenylalanyl)-L-phenyialanin]	–	–
–	NC(Cc1ccc(F)cc1)C(=O)O (racemic) [p-F-DL-Phenylalanin]	Wirksamkeit zeigen	Wirksamkeit gegen candida albicans [4]: nicht wirksam; MIC ([4]; 24 h, all tested Candida albicans isolates, read-out: inhibierende Konzentration): > 256 µg/mL
